{"source": "ChEMBL document CHEMBL4257479", "about": "“Design, synthesis and evaluation of indole derivatives as multifunctional agents against Alzheimer's disease” (Medchemcomm, 2018)", "key": {"[1]": {"target": "T1, Amine oxidase [flavin-containing] B (Homo sapiens, UniProt P27338)", "T1 sequence (P27338 whole entry)": "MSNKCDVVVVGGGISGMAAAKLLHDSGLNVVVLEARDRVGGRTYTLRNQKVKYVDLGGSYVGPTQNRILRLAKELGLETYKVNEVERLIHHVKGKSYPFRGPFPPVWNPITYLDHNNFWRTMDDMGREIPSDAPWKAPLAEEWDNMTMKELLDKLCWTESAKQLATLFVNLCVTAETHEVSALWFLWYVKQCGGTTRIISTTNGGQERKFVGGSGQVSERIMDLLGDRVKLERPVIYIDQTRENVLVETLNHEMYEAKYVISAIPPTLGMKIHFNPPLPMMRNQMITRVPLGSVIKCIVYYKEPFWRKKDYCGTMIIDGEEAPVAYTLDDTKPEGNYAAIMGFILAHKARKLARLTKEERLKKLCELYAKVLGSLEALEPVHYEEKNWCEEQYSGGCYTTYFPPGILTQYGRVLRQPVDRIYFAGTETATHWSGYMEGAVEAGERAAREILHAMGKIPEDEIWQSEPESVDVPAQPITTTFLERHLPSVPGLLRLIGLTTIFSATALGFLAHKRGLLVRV", "description": "Inhibition of human recombinant MAOB using kynuramine as substrate preincubated for 10 mins followed by substrate addition at 10 secs intervals measured after 20 mins by fluorescence assay"}, "Acetylcholinesterase": {"target": "Acetylcholinesterase (Electrophorus electricus, UniProt O42275)", "sequence (O42275 whole entry)": "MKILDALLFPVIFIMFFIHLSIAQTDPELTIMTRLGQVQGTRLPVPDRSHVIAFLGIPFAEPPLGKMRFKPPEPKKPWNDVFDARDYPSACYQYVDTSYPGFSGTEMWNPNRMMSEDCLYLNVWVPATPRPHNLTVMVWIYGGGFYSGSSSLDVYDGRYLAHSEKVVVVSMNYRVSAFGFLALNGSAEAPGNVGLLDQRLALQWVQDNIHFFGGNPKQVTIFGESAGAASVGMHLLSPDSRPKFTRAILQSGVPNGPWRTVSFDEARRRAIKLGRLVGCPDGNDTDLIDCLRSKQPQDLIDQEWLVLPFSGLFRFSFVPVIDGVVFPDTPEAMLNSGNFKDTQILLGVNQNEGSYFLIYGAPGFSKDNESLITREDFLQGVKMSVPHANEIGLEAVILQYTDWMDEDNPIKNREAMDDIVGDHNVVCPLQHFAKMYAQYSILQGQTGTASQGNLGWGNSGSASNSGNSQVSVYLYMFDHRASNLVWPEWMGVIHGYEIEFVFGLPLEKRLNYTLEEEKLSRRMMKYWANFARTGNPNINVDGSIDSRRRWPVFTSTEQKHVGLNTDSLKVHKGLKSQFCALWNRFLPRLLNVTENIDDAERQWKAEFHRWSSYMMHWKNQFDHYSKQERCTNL", "experiment": "Inhibition of electric eel AChE using acetylthiocholine iodide as substrate preincubated for 10 mins followed by substrate addition and measured after 10 mins by Ellman's method"}, "[2]": {"target": "T2, Amine oxidase [flavin-containing] A (Homo sapiens, UniProt P21397)", "T2 sequence (P21397 whole entry)": "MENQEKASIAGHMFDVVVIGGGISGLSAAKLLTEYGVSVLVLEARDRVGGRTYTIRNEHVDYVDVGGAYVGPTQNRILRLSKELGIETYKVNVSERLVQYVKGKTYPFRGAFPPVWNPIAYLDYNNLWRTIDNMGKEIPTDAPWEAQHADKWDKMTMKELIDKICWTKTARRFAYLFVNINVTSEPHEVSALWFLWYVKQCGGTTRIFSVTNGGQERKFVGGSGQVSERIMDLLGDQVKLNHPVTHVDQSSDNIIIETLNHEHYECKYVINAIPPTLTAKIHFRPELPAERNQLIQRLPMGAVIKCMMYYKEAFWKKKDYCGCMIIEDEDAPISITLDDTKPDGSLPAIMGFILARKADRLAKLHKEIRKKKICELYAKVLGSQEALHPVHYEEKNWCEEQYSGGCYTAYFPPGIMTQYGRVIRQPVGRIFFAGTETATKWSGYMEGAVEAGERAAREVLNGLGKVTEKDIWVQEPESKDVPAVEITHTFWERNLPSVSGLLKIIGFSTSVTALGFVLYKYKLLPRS", "experiment": "Inhibition of human recombinant MAOA using kynuramine as substrate preincubated for 10 mins followed by substrate addition at 10 secs intervals measured after 20 mins by fluorescence assay"}, "Cholinesterase": {"target": "Cholinesterase (Equus caballus, UniProt P81908)", "sequence (P81908 whole entry)": "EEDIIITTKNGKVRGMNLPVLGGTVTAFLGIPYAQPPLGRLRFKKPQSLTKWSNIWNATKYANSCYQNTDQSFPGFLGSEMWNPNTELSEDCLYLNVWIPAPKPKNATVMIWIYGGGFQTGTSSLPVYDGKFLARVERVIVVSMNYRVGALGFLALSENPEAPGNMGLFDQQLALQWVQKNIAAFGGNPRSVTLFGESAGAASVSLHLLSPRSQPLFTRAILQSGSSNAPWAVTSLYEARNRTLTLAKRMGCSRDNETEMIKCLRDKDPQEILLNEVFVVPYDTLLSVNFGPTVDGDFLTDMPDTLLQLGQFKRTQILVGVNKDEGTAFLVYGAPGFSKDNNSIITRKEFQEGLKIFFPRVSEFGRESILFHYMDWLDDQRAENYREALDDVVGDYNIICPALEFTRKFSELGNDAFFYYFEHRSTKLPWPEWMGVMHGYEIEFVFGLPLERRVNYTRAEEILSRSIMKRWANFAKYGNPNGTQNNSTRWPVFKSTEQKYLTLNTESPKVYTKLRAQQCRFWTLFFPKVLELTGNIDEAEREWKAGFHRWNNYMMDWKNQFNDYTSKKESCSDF", "experiment": "Inhibition of equine serum BuChE using S-butyrylthiocholine iodide as substrate pretreated for 10 mins followed by substrate addition and measured after 10 mins by Ellman's method"}, "SH-SY5Y [3]": {"system": "SH-SY5Y", "experiment": "Cytoprotection against MPP+ induced cell death in human SH-SY5Y cells assessed as cell survival at 5 to 10 uM preincubated for 2 hrs followed by MPP+ addition and measured after 48 hrs by MTT assay (reference value: 52.78 +/- 7.35%)", "format": "functional, cell-based"}, "SH-SY5Y [4]": {"system": "SH-SY5Y", "experiment": "(§1) Cytotoxicity against human SH-SY5Y cells assessed as reduction in cell viability after 48 hrs by MTT assay", "format": "cell-based", "settings": "sh-sy5y, 48 h"}, "[5]": {"experiment": "as §1", "format": "cell-based", "settings": "SH-SY5Y cells"}, "[6]": {"target": "T2, Amine oxidase [flavin-containing] A", "experiment": "Irreversible time dependent inhibition of human recombinant MAOA at 2 times IC50 using kynuramine as substrate preincubated up to 60 mins followed by 45 uM substrate addition by fluorescence assay", "settings": "TDE = time-dependent effect"}, "[7]": {"experiment": "Stability in 0.1 M HCl assessed as compound degradation at 1 mg/ml up to 7 days by UV/vis absorbance assay", "format": "physicochemical", "settings": "buffer, 168 h"}, "Homo sapiens": {"species_on_record": "Homo sapiens", "experiment": "Selectivity index, ratio of IC50 for human recombinant MAOA to IC50 for human recombinant MAOB"}, "SH-SY5Y [8]": {"system": "SH-SY5Y", "experiment": "Cytoprotection against MPP+ induced cell death in human SH-SY5Y cells assessed as cell survival at 1 uM preincubated for 2 hrs followed by MPP+ addition and measured after 48 hrs by MTT assay (reference value: 52.78 +/- 7.35%)", "format": "functional", "settings": "read-out: Activity"}, "[9]": {"experiment": "Stability in 0.1 M NaOH assessed as compound degradation at 1 mg/ml up to 7 days by UV/vis absorbance assay", "format": "physicochemical", "settings": "168 h"}}, "note": "Active and inactive are the calls of the source. The calls are words filed in the database; no cut-off is given here."}
{"smiles": "CCN(CC)C(=O)Nc1ccc2[nH]ccc2c1", "values": [{"measurement": "IC50", "setting": "[1]", "result": "> 100", "unit": "µM"}, {"measurement": "IC50", "setting": "Acetylcholinesterase", "result": 1.97, "unit": "µM"}, {"measurement": "IC50", "setting": "[2]", "result": "> 100", "unit": "µM"}, {"measurement": "IC50", "setting": "Cholinesterase", "result": 3.48, "unit": "µM"}]}
{"smiles": "C#CCn1ccc2ccc(NC(=O)N(CC)CC)cc21", "values": [{"measurement": "Activity", "setting": "SH-SY5Y [3]", "result": "Active"}, {"measurement": "Activity", "setting": "SH-SY5Y [4]", "result": "Dose-dependent effect"}, {"measurement": "CC50 at 48 h", "setting": "[5]", "result": "> 100", "unit": "µM"}, {"measurement": "IC50", "setting": "[1]", "result": 2.62, "unit": "µM"}, {"measurement": "inhibition (INH)", "setting": "[6]", "result": "Tde"}, {"measurement": "IC50", "setting": "Acetylcholinesterase", "result": 3.7, "unit": "µM"}, {"measurement": "Stability", "setting": "[7]", "result": "Stable"}, {"measurement": "IC50", "setting": "[2]", "result": 4.31, "unit": "µM"}, {"measurement": "Ratio IC50", "setting": "Homo sapiens", "result": 1.65}, {"measurement": "IC50", "setting": "Cholinesterase", "result": 2.82, "unit": "µM"}, {"measurement": "viability at 1 µM", "setting": "SH-SY5Y [8]", "result": 107, "unit": "%"}, {"measurement": "Stability", "setting": "[9]", "result": "Stable"}]}
{"smiles": "CCN(CC)C(=O)Oc1ccc2cc[nH]c2c1", "values": [{"measurement": "IC50", "setting": "[1]", "result": "> 100", "unit": "µM"}, {"measurement": "IC50", "setting": "Acetylcholinesterase", "result": 3.72, "unit": "µM"}, {"measurement": "IC50", "setting": "[2]", "result": 88.1, "unit": "µM"}, {"measurement": "Ratio IC50", "setting": "Homo sapiens", "result": "< 0.88"}, {"measurement": "IC50", "setting": "Cholinesterase", "result": 3.18, "unit": "µM"}]}
{"smiles": "CCN(CC)C(=O)Nc1ccc2cc[nH]c2c1", "values": [{"measurement": "Activity", "setting": "SH-SY5Y [3]", "result": "Active"}, {"measurement": "Activity", "setting": "SH-SY5Y [4]", "result": "Dose-dependent effect"}, {"measurement": "CC50 at 48 h", "setting": "[5]", "result": "> 100", "unit": "µM"}, {"measurement": "IC50", "setting": "[1]", "result": "> 100", "unit": "µM"}, {"measurement": "IC50", "setting": "Acetylcholinesterase", "result": 2.28, "unit": "µM"}, {"measurement": "IC50", "setting": "[2]", "result": 20.4, "unit": "µM"}, {"measurement": "Ratio IC50", "setting": "Homo sapiens", "result": "< 0.2"}, {"measurement": "IC50", "setting": "Cholinesterase", "result": 4.55, "unit": "µM"}, {"measurement": "viability at 1 µM", "setting": "SH-SY5Y [8]", "result": 84.3, "unit": "%"}]}
{"smiles": "C#CCN(C)CCCOc1ccc(Cl)cc1Cl", "note": "[CLORGILINE]", "values": [{"measurement": "inhibition (INH)", "setting": "[6]", "result": "Tde"}]}
{"smiles": "C#CCN[C@@H]1CCc2ccc(OC(=O)N(C)CC)cc21", "note": "[LADOSTIGIL]", "values": [{"measurement": "IC50", "setting": "Acetylcholinesterase", "result": 31.8, "unit": "µM"}, {"measurement": "IC50", "setting": "[2]", "result": "> 100", "unit": "µM"}, {"measurement": "Ratio IC50", "setting": "Homo sapiens", "result": "> 2.69"}, {"measurement": "IC50", "setting": "Cholinesterase", "result": 1.98, "unit": "µM"}]}
{"smiles": "C#CCn1ccc2cc(NC(=O)N(CC)CC)ccc21", "values": [{"measurement": "IC50", "setting": "[1]", "result": 28.8, "unit": "µM"}, {"measurement": "IC50", "setting": "Acetylcholinesterase", "result": 2.77, "unit": "µM"}, {"measurement": "IC50", "setting": "[2]", "result": 33.4, "unit": "µM"}, {"measurement": "Ratio IC50", "setting": "Homo sapiens", "result": 1.16}, {"measurement": "IC50", "setting": "Cholinesterase", "result": 3.96, "unit": "µM"}]}
{"smiles": "C#CCn1ccc2ccc(OC(=O)N(CC)CC)cc21", "values": [{"measurement": "IC50", "setting": "[1]", "result": 1.84, "unit": "µM"}, {"measurement": "IC50", "setting": "Acetylcholinesterase", "result": 2.41, "unit": "µM"}, {"measurement": "Stability", "setting": "[7]", "result": "Unstable"}, {"measurement": "IC50", "setting": "[2]", "result": 51.6, "unit": "µM"}, {"measurement": "Ratio IC50", "setting": "Homo sapiens", "result": 28.1}, {"measurement": "IC50", "setting": "Cholinesterase", "result": 5.01, "unit": "µM"}, {"measurement": "Stability", "setting": "[9]", "result": "Unstable"}]}
{"smiles": "CCN(CC)C(=O)Oc1ccc2[nH]ccc2c1", "values": [{"measurement": "IC50", "setting": "[1]", "result": "> 100", "unit": "µM"}, {"measurement": "IC50", "setting": "Acetylcholinesterase", "result": 2.78, "unit": "µM"}, {"measurement": "IC50", "setting": "[2]", "result": 13.2, "unit": "µM"}, {"measurement": "Ratio IC50", "setting": "Homo sapiens", "result": "< 0.13"}, {"measurement": "IC50", "setting": "Cholinesterase", "result": 2.29, "unit": "µM"}]}
{"smiles": "C#CCn1ccc2cc(OC(=O)N(CC)CC)ccc21", "values": [{"measurement": "IC50", "setting": "[1]", "result": 16.5, "unit": "µM"}, {"measurement": "IC50", "setting": "Acetylcholinesterase", "result": 2.57, "unit": "µM"}, {"measurement": "IC50", "setting": "[2]", "result": 99.1, "unit": "µM"}, {"measurement": "Ratio IC50", "setting": "Homo sapiens", "result": 6}, {"measurement": "IC50", "setting": "Cholinesterase", "result": 3.01, "unit": "µM"}]}
